This passage reports IC50 results from US11319303B2 (WIGEN BIOMEDICINE TECHNOLOGY (SHANGHAI) CO., LTD., priority 2017, dated 2022).

Usually IC50 stands for the concentration that inhibits the measured activity by half.

Where a name gives a salt, the structure may show the parent alone. A value given as a limit tells only on which side of the number the result lay.

For the test, the target named is LC3B (Homo sapiens, UniProt Q9GZQ8). Nature of the test: Fluorescence Polarization (FP) Assay: displacement of FITC-labeled peptide from GST-LC3B. Type of test: binding. The note with it: Fluorescence Polarization assay; GST-LC3B 180 nM, FITC-labeled peptide 18 nM, 25° C.; read-out: IC50. As to the method:
The compounds of the present invention for regulating the autophagy-related protein LC3B were tested by Fluorescence Polarization (FP) Assay.
Fluorescence Polarization (FP) Assay Test
(Fluorescence polarisation rises when a labelled molecule tumbles more slowly, as on binding a larger partner.)
`O=C1CC(c2ccc(-n3ccnc3)nc2)CC(=O)C1=CNCCN1CCN(CCO)CC1` (centres unmarked) [Compound 82, 5-(6-(1H-imidazol-1-yl)pyridin-3-yl)-2-(((2-(4-(2-hydroxyethyl)piperazin-1-yl)ethyl)amino)methylene) cyclohexane-1,3-dione]: the 50% inhibitory concentration (IC50) lay within 15 to 100 µM. On to `CC(=O)NCCNC=C1C(=O)CC(c2ccccc2)CC1=O` (centres unmarked) [Compound 176, N-(2-(((2,6-dioxo-4-phenylcyclo-hexylidene)methyl)amino)ethyl) acetamide], for which the IC50 is 100 to 1000 µM. Consider `O=C1CC(C2CCOCC2)CC(=O)C1=CNCCN1CCN(CCO)CC1` (centres unmarked) [Compound 64, 2-(((2-(4-(2-hydroxyethyl)piperazin-1-yl)ethyl)amino)methylene)-5-(tetrahydro-2H-pyran-4-yl)cyclohexane-1,3-dione], for which the IC50 fell in the range of 100 to 1000 µM. Regarding `CN1CCC(NC=C2C(=O)CC(c3ccccc3)CC2=O)CC1` (centres unmarked) [Compound 142, 2-(((1-methylpiperidin-4-yl)amino)methylene)-5-phenylcyclohexane-1,3-dione], the IC50 was 15 to 100 µM. The figure for `CC1C(=O)C(=CNCCN2CCN(CCO)CC2)C(=O)CC1c1ccccc1` (centres unmarked) [Compound 116, 2-(((2-(4-(2-hydroxyethyl)piperazin-1-yl)ethyl)amino)methylene)-4-methyl-5-phenylcyclohexane-1,3-dione] is below 3 µM; for `CC(C)CNC(=O)C1CC(=O)C(=CN(C)C)C(=O)C1` (centres unmarked) [Compound 273, 4-((dimethylamino)methylene)-N-isobutyl-3,5-dioxocyclohexane-1-carboxamide] it is 15 to 100 µM; for `COc1ccc2[nH]cc(C3CC(=O)C(=CNCCN4CCN(CCO)CC4)C(=O)C3)c2c1` (centres unmarked) [Compound 186, 2-(((2-(4-(2-hydroxyethyl)piperazin-1-yl)ethyl)amino)methylene)-5-(5-methoxy-1H-indol-3-yl)cyclohexane-1,3-dione] it is 3 to 15 µM. The figure for `O=C1CC(c2ccccc2Br)CC(=O)C1=CO` (centres unmarked) [Compound 422, 2-(hydroxymethylene)-5-(2-bromophenyl)cyclo-hexane-1,3-dione] is below 3 µM; for `CN(C)C=C1C(=O)CC(c2cccc3[nH]ccc23)CC1=O` (centres unmarked) [Compound 271, 2-((dimethylamino)methylene)-5-(1H-indol-4-yl)cyclohexane-1,3-dione] it is below 3 µM; for `O=C1CC2(CCC2)CC(=O)C1=CNCCN1CCN(CCO)CC1` [Compound 86, 7-(((2-(4-(2-hydroxyethyl)piperazin-1-yl)ethyl)amino)methylene)-spiro[3.5]nonane-6,8-dione] it is 15 to 100 µM. The figure for `CC1(C)CC(=O)C(=CNCCN2CCN(CCO)CC2)C(=O)C1` [Compound 182, 2-(((2-(4-(2-hydroxyethyl)piperazin-1-yl)ethyl)amino)methylene)-5,5-dimethyl-cyclohexane-1,3-dione] is 100 to 1000 µM; for `O=C1CC(c2cccc(F)c2)CC(=O)C1=CO` (centres unmarked) [Compound 446, 2-(hydroxymethylene)-5-(3-fluorophenyl)cyclo-hexane-1,3-dione] it is 3 to 15 µM.

Turning to `CC1(C#N)C(=O)C(=CNCCN2CCN(CCO)CC2)C(=O)CC1c1ccccc1` (centres unmarked) [Compound 336, 3-(((2-(4-(2-hydroxyethyl)piperazin-1-yl)ethyl)amino)methylene)-1-methyl-2,4-dioxo-6-phenylcyclohexane-1-carbonitrile], the IC50 fell in the range of 3 to 15 µM. As for `O=C1Nc2c(F)cccc2C(=O)/C1=C/NCCN1CCN(CCO)CC1` [Compound 195, 8-fluoro-3-(((2-(4-(2-hydroxyethyl)piperazin-1-yl)ethyl)amino)methylene) quinoline-2,4 (1H,3H)-dione], the IC50 was in the range of 3 to 15 µM.

For `COCCOc1ccc(C2CC(=O)C(=CNCCN3CCN(CCO)CC3)C(=O)C2)cc1` (centres unmarked) [Compound 44, 2-(((2-(4-(2-hydroxyethyl)piperazin-1-yl)ethyl)amino)methylene)-5-(4-(2-methoxyethoxy)phenyl) cyclohexane-1,3-dione], the half-inhibitory concentration (IC50) is 15 to 100 µM. With `CN(C)CCNC=C1C(=O)CC(c2cc(Cl)ccc2F)CC1=O` (centres unmarked) [Compound 390, 5-(5-chloro-2-fluorophenyl)-2-(((2-(dimethylamino)ethyl)amino)methylene) cyclohexane-1,3-dione], the concentration for half-maximal inhibition (IC50) is below 3 µM. Regarding `O=C1CC(c2ccccc2)CC(=O)C1=C(NCCN1CCN(CCO)CC1)c1ccccc1` (centres unmarked) [Compound 110, 2-(((2-(4-(2-hydroxyethyl)piperazin-1-yl)ethyl)amino)(phenyl)methylene)-5-phenylcyclohexane-1,3-dione], the IC50 was 100 to 1000 µM. With `COc1ccc(C2CC(=O)C(=CO)C(=O)C2)c(OC)c1` (centres unmarked) [Compound 424, 2-(hydroxymethylene)-5-(2,4-dimethoxyphenyl) cyclohexane-1,3-dione], the 50% inhibitory concentration (IC50) was 3 to 15 µM. Then `O=C1CC(c2cccs2)CC(=O)C1=CO` (centres unmarked) [Compound 453, 2-(hydroxy-methylene)-5-(2-thiophen)cyclo-hexane-1,3-dione lithium salt], with 3 to 15 µM.

For the compound `O=C1CCCC(=O)C1=CNCCN1CCN(CCO)CC1` [Compound 11, 2-(((2-(4-(2-hydroxyethyl)piperazin-1-yl)ethyl)amino)methylene) cyclohexane-1,3-dione], the IC50 was in the range of 100 to 1000 µM. Take `CN1CCN(c2ccc(C3CC(=O)C(=CNCCN4CCN(CCO)CC4)C(=O)C3)cc2)CC1` (centres unmarked) [Compound 36, 2-(((2-(4-(2-hydroxyethyl)piperazin-1-yl)ethyl)amino)methylene)-5-(4-(4-methylpiperazin-1-yl)phenyl) cyclohexane-1,3-dione]: the IC50 was 100 to 1000 µM. As for `O=C1CC(c2ccc(-c3ccncc3)s2)CC(=O)C1=CNCCN1CCN(CCO)CC1` (centres unmarked) [Compound 72, 2-(((2-(4-(2-hydroxyethyl)piperazin-1-yl)ethyl)amino)methylene)-5-(5-(pyridin-4-yl)thiophen-2-yl)cyclohexane-1,3-dione], the IC50 is below 3 µM. The figure for `CC(C)(C)C(=O)N1CCN(CCNC=C2C(=O)CC(c3ccccc3)CC2=O)CC1` (centres unmarked) [Compound 212, 5-phenyl-2-(((2-(4-pivaloylpiperazin-1-yl)ethyl)amino)methylene) cyclohexane-1,3-dione] is below 3 µM. The figure for `Cn1nnc(-c2ccc(C3CC(=O)C(=CNCCN4CCN(CCO)CC4)C(=O)C3)cc2)n1` (centres unmarked) [Compound 22, 2-(((2-(4-(2-hydroxyethyl)piperazin-1-yl)ethyl)amino)methylene)-5-(4-(2-methyl-2H-tetrazol-5-yl)phenyl) cyclohexane-1,3-dione] is 100 to 1000 µM; for `O=C1CC(c2ccccc2C(F)(F)F)CC(=O)C1=CNCCN1CCN(CCO)CC1` (centres unmarked) [Compound 320, 2-(((2-(4-(2-hydroxyethyl)piperazin-1-yl)ethyl)amino)methylene)-5-(2-(trifluoromethyl)phenyl) cyclohexane-1,3-dione] it is below 3 µM; for `NC=C1C(=O)CC(c2ccccc2)CC1=O` (centres unmarked) [Compound 2, 2-(aminomethylene)-5-phenylcyclohexane-1,3-dione] it is 3 to 15 µM. For `COc1ccc(C2CC(=O)C(=CN(C)C)C(=O)C2)cc1` (centres unmarked) [Compound 241, 2-((dimethylamino)methylene)-5-(4-methoxyphenyl) cyclohexane-1,3-dione], the IC50 was below 3 µM. As for `N#Cc1ccc(C2CC(=O)C(=CO)C(=O)C2)cc1` (centres unmarked) [Compound 425, 2-(hydroxymethylene)-5-(4-cyanophenyl)cyclo-hexane-1,3-dione], the IC50 is 15 to 100 µM. As to `O=C1Nc2c(ccc3ccccc23)C(=O)/C1=C\NCCN1CCN(CCO)CC1` [Compound 331, 3-(((2-(4-(2-hydroxyethyl)piperazin-1-yl)ethyl)amino)methylene) benzo[h]quinoline-2,4(1H,3H)-dione], the IC50 was below 3 µM. Take `CN(C)CCNC=C1C(=O)CC(c2c(Cl)ccc(Cl)c2Cl)CC1=O` (centres unmarked) [Compound 397, 2-(((2-(dimethylamino)ethyl)amino)methylene)-5-(2,3,6-trichlorophenyl) cyclohexane-1,3-dione]: the IC50 was below 3 µM. Take `CN(C)CCCNC=C1C(=O)CC(c2ccccc2)CC1=O` (centres unmarked) [Compound 202, 2-(((3-(dimethylamino)propyl)amino)methylene)-5-phenylcyclohexane-1,3-dione]: the concentration for half-maximal inhibition (IC50) fell in the range of 15 to 100 µM.

Consider `O=C1CC(c2ccccc2)C(C(=O)N2CCOCC2)C(=O)C1=CNCCN1CCN(CCO)CC1` (centres unmarked) [Compound 190, 2-(((2-(4-(2-hydroxyethyl)piperazin-1-yl)ethyl)amino)methylene)-4-(morpholine-4-carbonyl)-5-phenylcyclo-hexane-1,3-dione], for which the 50% inhibitory concentration (IC50) lay in the range of 15 to 100 µM. For `COc1cccc(OC)c1C1CC(=O)C(=CO)C(=O)C1` (centres unmarked) [Compound 441, 2-(hydroxymethylene)-5-(2,6-dimethoxyphenyl) cyclohexane-1,3-dione], the IC50 was in the range of 15 to 100 µM. On to `O=C1CC(c2ccc(F)cc2)CC(=O)C1=CNCCN1CCN(CCO)CC1` (centres unmarked) [Compound 49, 5-(4-fluorophenyl)-2-(((2-(4-(2-hydroxyethyl)piperazin-1-yl)ethyl)amino)methylene) cyclohexane-1,3-dione], for which the IC50 was below 3 µM. Turning to `CC(=O)Nc1ccc(C2CC(=O)C(=CN(C)C)C(=O)C2)cc1` (centres unmarked) [Compound 256, N-(4-(4-((dimethylamino)methylene)-3,5-dioxocyclohexyl)phenyl) acetamide], the IC50 was below 3 µM. Take `O=C1CC(c2cccc3[nH]ccc23)CC(=O)C1=CO` (centres unmarked) [Compound 460, 2-(hydroxy-methylene)-5-(1H-indol-4-yl)cyclo-hexane-1,3-dione sodium salt]: the concentration for half-maximal inhibition (IC50) is below 3 µM. With `O=C1CC(c2ccc(-c3ncnc4[nH]cnc34)cc2)CC(=O)C1=CNCCN1CCN(CCO)CC1` (centres unmarked) [Compound 33, 5-(4-(9H-purin-6-yl)phenyl)-2-(((2-(4-(2-hydroxyethyl)piperazin-1-yl)ethyl)amino)methylene)cyclohexane-1,3-dione], the half-maximal inhibitory concentration (IC50) lay in the range of 15 to 100 µM.

Regarding `O=C1CC(c2cccc(Br)c2)CC(=O)C1=CO` (centres unmarked) [Compound 439, 2-(hydroxymethylene)-5-(3-bromophenyl)cyclo-hexane-1,3-dione], the half-inhibitory concentration (IC50) fell in the range of 3 to 15 µM.
